# From patent US20250049800A1, “VCP/p97 INHIBITOR FOR THE TREATMENT OF CANCER” (CASI Pharmaceuticals, Inc., priority 2021, published 2025)
# Like-named read-outs stand apart in the source and are kept apart here.
# Experiments:
# [1] = test system: HL-60 cell line; test: Cell Titer-Glo viability, fixed agent + dose response agent combinations; assay type: cell-based, human; settings: for Combination:Monotherapy IC50 Ratio: HL-60; for IC50: Homo sapiens, HL-60, HL-60, read-out: IC50
# Protocol: (§1) The additional therapeutic agents for this example were azacitidine (Cayman Chemical Cat No. 11164), decitabine (Sigma Cat No. A3656) and venetoclax (InvivoChem Cat. No. V0001).
# (§2) Cell Culture: Three human acute myeloid leukemia tumor cell lines were used in this study: HL60, MV4;11 and MOLM-13. HL60 and MV4;11 were grown in IMDM base media with 20% and 10% FBS, respectively. MOLM-13 was grown in RPMI 1640 base media with 20% FBS. All culture media contained 2 mM glutamine, 100 units/mL sodium penicillin G, […] gentamicin, and 100 µg/mL streptomycin sulfate. The tumor cells were cultured in tissue culture flasks in a humidified incubator at 37° C., in an atmosphere of 5% CO2 and 95% air. Assay: Tumor cells were seeded in duplicate in a volume of 100 µL/well of media into 96-well micro-culture plates at initial densities low enough to allow for several population doublings (typically three to five) during the indicated incubation period. After a 24 hour incubation, test agents were added to each well. After 72 hours of culture with test articles, cell viability was determined using the Cell Titer-Glo® (Promega G7571) assay. Briefly, Cell Titer-Glo® (Promega G7571) reagents were equilibrated at room temperature for 30 minutes; 100 μL per well was added at endpoint (72 hours). Plates were gently shaken for two minutes and then incubated at room temperature for ten minutes prior to reading luminescence on the BMG Clariostar Plus microplate reader.
# (§3) An IC50 ratio for each combination was calculated from the ratio of the combination IC50 as compared to the applicable no fixed agent (vehicle) control.
# [2] = test system: MOML-13 cell line; test: as above; assay type: cell-based, human; settings: MOML-13; for IC50: Homo sapiens, read-out: IC50
# Protocol: as §1, §2, §3
# [3] = test system: MV4; 11 cell line; test: as above; assay type: cell-based, human; settings: 11; for IC50: Homo sapiens, MV4-11, MV4, read-out: IC50; for Combination:Monotherapy IC50 Ratio: MV4
# Protocol: as §1, §2, §3
# [4] = test system: Activated Caspase 3; test: Activated Caspase 3 biomarker in patient blood samples; assay type: in vivo, human; settings: cohorts 4 and 5; one patient
# Protocol: Two biomarkers were assessed in patients from cohorts 4 and 5. K48-Ub (ubiquitin) and Activated Caspase 3 biomarkers were analyzed from 5 patient blood samples.
# [5] = fixed agent Azacitidine - 5750 nM
# [6] = fixed agent Azacitidine - 9800 nM
# [7] = fixed agent Decitabine - 175 nM
# [8] = fixed agent Decitabine - 1700 nM
# [9] = fixed agent Venetoclax + Azacitidine - 85 nM
# [10] = fixed agent Venetoclax + Azacitidine - 475 nM
# [11] = fixed agent Azacitidine - 105 nM
# [12] = fixed agent Azacitidine - 850 nM
# [13] = fixed agent Decitabine - 2.5 nM
# [14] = fixed agent Decitabine - 8.5 nM
# [15] = fixed agent Venetoclax + Azacitidine - 6.5 nM
# [16] = fixed agent Venetoclax + Azacitidine - 20 nM
# [17] = fixed agent Azacitidine - 500 nM
# [18] = fixed agent Azacitidine - 3150 nM
# [19] = fixed agent Decitabine - 215 nM
# [20] = fixed agent Venetoclax + Azacitidine - 50 nM
structure (smiles),measurement,setting,value
"Cc1cc2c(C(N)=O)cccc2n1-c1nc2c(c(NCc3ccccc3)n1)CCCN2 [Compound 1, 1-(4-(benzylamino)-5,6,7,8-tetrahydropyrido[2,3-d]pyrimidin-2-yl)-2-methyl-1H-indole-4-carboxamide]",Combination:Monotherapy IC50 Ratio,[1]; [5],1.02
same,Combination:Monotherapy IC50 Ratio,[1]; [6],0.85
same,Combination:Monotherapy IC50 Ratio,[1]; [7],0.96
same,Combination:Monotherapy IC50 Ratio,[1]; [8],1.06
same,Combination:Monotherapy IC50 Ratio,[1]; [9],0.84
same,Combination:Monotherapy IC50 Ratio,[1]; [10],0.84
same,IC50,[1]; [5],311 nM
same,IC50,[1]; [6],258 nM
same,IC50,[1]; [7],294 nM
same,IC50,[1]; [8],322 nM
same,IC50,[1]; [9],256 nM
same,IC50,[1]; [10],256 nM
same,IC50,[2]; [11],84.6 nM
same,IC50,[2]; [12],84.9 nM
same,IC50,[2]; [13],121 nM
same,IC50,[2]; [14],65 nM
same,IC50,[2]; [15],154 nM
same,IC50,[2]; [16],113 nM
same,Combination:Monotherapy IC50 Ratio,[2]; [11],0.39
same,Combination:Monotherapy IC50 Ratio,[2]; [12],0.39
same,Combination:Monotherapy IC50 Ratio,[2]; [13],0.56
same,Combination:Monotherapy IC50 Ratio,[2]; [14],0.30
same,Combination:Monotherapy IC50 Ratio,[2]; [15],0.71
same,Combination:Monotherapy IC50 Ratio,[2]; [16],0.52
same,IC50,[3]; [17],114 nM
same,IC50,[3]; [18],118 nM
same,IC50,[3]; fixed agent Decitabine - 30 nM,117 nM
same,IC50,[3]; [19],91.5 nM
same,IC50,[3]; [16],163 nM
same,IC50,[3]; [20],118 nM
same,Combination:Monotherapy IC50 Ratio,[3]; [17],0.46
same,Combination:Monotherapy IC50 Ratio,[3]; [18],0.47
same,Combination:Monotherapy IC50 Ratio,[3]; fixed agent Decitabine - 30 nM,0.47
same,Combination:Monotherapy IC50 Ratio,[3]; [19],0.36
same,Combination:Monotherapy IC50 Ratio,[3]; [16],0.65
same,Combination:Monotherapy IC50 Ratio,[3]; [20],0.47
same,"Activated Caspase 3, fold increase",[4],9 fold
